{"source": "patent US20040229241A1", "about": "“Cloned mammalian polyamine oxidase” (priority 2001, published 2004)", "key": {"[1]": {"system": "PAOh1/SMO", "experiment": "PAOh1/SMO activity in lysates of NCI A549 cells after analogue treatment", "format": "cell-based, human", "experimental": "(§1) Cell Culture and Analysis of Growth Inhibition of Human Lung Cancer Cell Lines The non-small-cell cancer lines NCI A549 (adenocarcinoma), NCI H157 (squamous), NCI H727 (carcinoid), NCI H125 (adenocarcinoma) and U1752 (squamous), and the small-cell lung carcinoma lines NCI H82 and NCI H889 were cultured as we have previously described. Cells were treated for the times and with the concentrations of specific agents as indicated in the Results. For cell growth analysis in the presence of the PAOh1/SMO inhibitor MDL 72,527, the MTS dye reduction assay CellTiter 96 system from Promega was used according to the supplier's protocol. In these experiments, NCI A549 cells were seeded at 5×10^3 cells/well in a 96-well microtiter plate and treated for 96 h with 10 μM of the indicated analogue in the presence or absence of 250 μM MDL 72,527.\n(§2) Total cellular RNA was extracted from the lung cancer cell lines using Trizol reagent (Invitrogen) according to the manufacturer's protocol. For Northern blotting, total RNA (20 lg) was separated on a denaturing 1.5% agarose gel containing 6% formaldehyde and transferred to Zetaprobe membrane (Bio-Rad). Random primer- labeled PAOh1 cDNA was used as probe to estimate PAOh1/SMO expression. Blots were stripped and reprobed with an 18S ribosomal cDNA to provide a loading control. Analysis of polyamine content, SSAT and PAOh1/SMO activity. Intracellular polyamine concentrations were determined using the precolumn dansylation labeling, reverse-phase high-pressure liquid chromatography method as described by Kabra et al. using 1,7-diaminoheptane as an internal standard. Polyamine concentrations are reported as nanomoles per milligram protein for each sample, where lysate protein content was measured by the method of Bradford. SSAT activity of cellular extracts was measured as previously described. […] The PAOh1/SMO assays were performed in the presence of 1.0 mM pargyline and 0.1 mM semicarbizide as inhibitors of monoamine oxidase (MAO) and diamine oxidase (DAO), respectively."}, "[2]": {"system": "PAO message", "experiment": "Northern blot of PAO mRNA in NCI H157 cells after analogue treatment", "format": "cell-based, human", "conditions": "10 μM, 24 h", "experimental": "RNA Purification and Northern Blot Assay. Total cellular RNA from the NCI H157 cell line was extracted using Trizol total RNA reagent according to the protocol from the manufacturer. Total RNA (20 μg) was separated on a denaturing 1.5% agarose gel containing 6% formaldehyde, transferred to Zetaprobe membrane (Bio-Rad), and hybridized with a random primer-labeled pPAOh1 cDNA as the probe. Blots were washed and reprobed with an 18S ribosomal cDNA probe as a loading control."}, "[3]": {"target": "T1, purified recombinant human PAOh1/SMO (Homo sapiens, UniProt Q9NWM0)", "T1 construct": "A 1702 bp fragment of the PAOh1cDNA was produced by PCR; His tag (pET15b) (N); made in house; host or cells: Escherichia coli BL21(DE3)", "T1 sequence (Q9NWM0 whole entry, the tested form may be a part)": "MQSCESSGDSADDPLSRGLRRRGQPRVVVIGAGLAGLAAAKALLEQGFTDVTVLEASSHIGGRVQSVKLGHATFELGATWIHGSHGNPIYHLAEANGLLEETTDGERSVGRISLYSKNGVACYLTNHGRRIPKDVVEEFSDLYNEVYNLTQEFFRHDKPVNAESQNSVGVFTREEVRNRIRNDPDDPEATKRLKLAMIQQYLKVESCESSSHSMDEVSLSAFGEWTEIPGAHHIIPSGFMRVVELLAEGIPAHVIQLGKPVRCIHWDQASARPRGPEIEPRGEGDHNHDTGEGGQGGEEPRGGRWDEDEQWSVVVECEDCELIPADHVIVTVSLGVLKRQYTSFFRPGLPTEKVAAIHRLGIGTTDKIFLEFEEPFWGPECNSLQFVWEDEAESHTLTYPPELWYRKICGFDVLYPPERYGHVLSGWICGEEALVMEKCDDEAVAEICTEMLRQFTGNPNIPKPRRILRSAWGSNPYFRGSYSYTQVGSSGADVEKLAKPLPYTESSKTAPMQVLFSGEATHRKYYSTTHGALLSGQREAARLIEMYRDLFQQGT", "experiment": "Oxidase activity of purified recombinant PAOh1/SMO, luminol chemiluminescence", "format": "biochemical", "experimental": "Expression and Purification of PAOh1/SMO. The pET15b/PAOh1/SMO plasmid was used to transform the BL21(DE3) strain of Escherichia coli (Novagen) and transformed cells were selected on LB agar with 50 μg/ml ampicillin. The expression of PAOh1/SMO protein was induced in LB medium by the addition of 1 mM IPTG for 3 h at 37 ° C. Cell lysates were prepared under denaturing conditions with 8M urea and PAOh1/SMO protein was purified from the lysate by Ni-NTA resin according to the manufacturer's protocol (Qiagen, Valencia, Calif.). The resulting denatured protein was renatured in buffers containing decreasing concentrations of urea (5M urea, 4 h; 2.5M urea, 4 h; 1M urea, 12 h; and 0M urea, 12 h) and 50 mM Tris-HCl, pH 7.5, 250 mM NaCl, 0.1 mM EDTA, 1 mM DTT, and 0.2 μM flavin adenine dinucleotide (FAD).\nDetermination of PAO enzyme activity. PAO activity of the purified PAOh1/SMO was assayed using a modi.cation of the chemiluminesence analysis reported by Fernandez et al. and Rogers, et al.. Briefly, luminol-dependent chemiluminescence was determined using a Monolight 3010 luminometer with two reagent injectors. Luminol was prepared as a 100 mM stock solution in DMSO and diluted to 100 μM with H2O, immediately prior to use. Purified PAOh1/SMO was assayed in a 100 mM glycine buffer, pH 8.0, 5 ηmol luminol, 20 μg horseradish peroxidase, and the polyamine substrate as indicated. All reagents with the exception of the polyamine substrate were combined and incubated for 2 min at 37 ° C., then the tube was transferred to the luminometer, substrate was added, and the resulting chemiluminescence was integrated over 20 s. The integral values are calibrated against standards containing known concentrations of H2O2 and the activities are expressed as pmols H2O2/mg protein/min. Where indicated, inhibitors were added at the specified concentrations prior to the addition of substrate. Km and Vmax values for the purified enzyme with the indicated substrate were estimated using Lineweaver-Burk transformation of the Michaelis-Menten kinetic equation."}, "[4]": {"system": "PAO", "experiment": "PAO activity in homogenates of NCI H157 cells after analogue treatment", "format": "cell-based, human", "conditions": "10 μM, 24 h", "experimental": "Determination of PAO Enzyme Activity. The cultured H157 cells with or without treatment of 10 μM N^1, N″-bis(ethyl)norspermine (BENSpm) were homogenized with a Dounce tissue homogenizer in ice-cold 0.083 M sodium borate buffer (pH 9.0). The PAO activity in homogenates was assayed by the method of Suzuki et al. […] The enzyme activity was stopped by the addition of 2.0 ml of 0.1 M NaOH solution. The fluorescence intensity was measured with excitation at 323 nm and emission at 426 nm. […] Protein content of the cellular homogenate was determined using the Bio-Rad protein assay kit (Bio-Rad). […] For determination of PAO activity in the product of the unlabeled TnT reaction, 10 μl of TnT reaction were used in the place of the homogenate. The PAO activity in the TnT reactions was represented by the fluorescent compound formed within the 1-h incubation. […] The concentrations chosen for each inhibitor were based on studies published previously (12)."}, "[5]": {"system": "SSAT", "experiment": "SSAT activity of NCI A549 cellular extracts", "format": "cell-based, human", "conditions": "NCI A549, 10 μM, 24 h; untreated 5 ± 0.1", "from_the_text": "as §2"}, "[6]": {"system": "PAOh1/SMO", "experiment": "PAOh1/SMO activity and mRNA in small-cell lung cancer lines NCI H82 and NCI H889 after BENSpm", "format": "cell-based, human", "conditions": "two small-cell lung cancer lines, 10 μM, 24 h", "experimental": "as §1, with “In these experiments, NCI A549 cells were seeded at 5×10^3 cells/well in a 96-well microtiter plate and treated for 96 h with 10 μM of the indicated analogue in the presence or absence of 250 μM MDL 72,527.” left out\nTotal cellular RNA was extracted from the lung cancer cell lines using Trizol reagent (Invitrogen) according to the manufacturer's protocol. […] Intracellular polyamine concentrations were determined using the precolumn dansylation labeling, reverse-phase high-pressure liquid chromatography method as described by Kabra et al. using 1,7-diaminoheptane as an internal standard. Polyamine concentrations are reported as nanomoles per milligram protein for each sample, where lysate protein content was measured by the method of Bradford. SSAT activity of cellular extracts was measured as previously described. […]"}, "[7]": {"system": "NCI A549 cells", "experiment": "Intracellular polyamine and analogue content of NCI A549 cells (HPLC)", "format": "cell-based, human", "conditions": "NCI A549, 10 μM, 24 h", "from_the_text": "as §2"}, "[8]": {"system": "NCI A549 cells", "experiment": "MTS cell growth analysis of NCI A549 cells with or without MDL 72,527", "format": "cell-based, human", "experimental": "as §1"}, "[9]": {"target": "T2, human PAOh1 (Homo sapiens, UniProt Q9NWM0)", "T2 construct": "made in house; host or cells: TnT-coupled wheat germ extract (Promega), template pPAOh1 (pcDNA3.1)", "T2 sequence (Q9NWM0 whole entry)": "as the sequence (Q9NWM0 whole entry, the tested form may be a part) above", "experiment": "PAO activity of in vitro TnT (wheat germ) produced PAOh1, fluorescent H2O2 assay", "format": "biochemical", "conditions": "0.25 mM inhibitor, 250 μM spermine as substrate", "experimental": "In Vitro Transcription and Translation. In vitro transcription and translation reactions were performed with the TnT-coupled wheat germ extract system. Parallel reactions were prepared by adding an unlabeled amino acid mixture to one reaction and a [^35S]methionine containing amino acid mixture to the other, according to the supplied protocol. Vector pcDNA3.1 and pPAOh1 were linearized by SalI restriction and served as the templates. The labeled translation reactions products were separated by 10% SDS-PAGE, and radioactivity on the labeled PAO band was determined by Phosphor image analysis using Image Quant software (Molecular Dynamics, Sunnyvale, Calif.).\nDetermination of PAO Enzyme Activity. The cultured H157 cells with or without treatment of 10 μM N^1, N″-bis(ethyl)norspermine (BENSpm) were homogenized with a Dounce tissue homogenizer in ice-cold 0.083 M sodium borate buffer (pH 9.0). […] The enzyme activity was stopped by the addition of 2.0 ml of 0.1 M NaOH solution. The fluorescence intensity was measured with excitation at 323 nm and emission at 426 nm. […] Protein content of the cellular homogenate was determined using the Bio-Rad protein assay kit (Bio-Rad). […] For determination of PAO activity in the product of the unlabeled TnT reaction, 10 μl of TnT reaction were used in the place of the homogenate. […]"}}, "note": "pIC50: −log10 of the molar value.", "data": [{"smiles": "CCNCCCNCCCNCCCNCC", "note": "[BENSpm, N^1,N^11-bis(ethyl)norspermine]", "values": [{"measurement": "fold increase of PAOh1/SMO activity", "setting": "[1]; NCI A549, 10 μM, 12 h", "result": "approximately threefold"}, {"measurement": "fold induction of PAOh1/SMO activity", "setting": "[1]; NCI A549, 10 μM, 24 h, 250 μM spermine as substrate", "result": "about fivefold"}, {"measurement": "PAOh1/SMO activity", "setting": "[1]; NCI A549, 10 μM, 24 h, untreated 6,390 ± 2,070", "result": "16,100 ± 780 pmol H2O2/mg/h"}, {"measurement": "induction of PAOh1/SMO activity", "setting": "[1]; NCI A549, 24 h exposure to 10 μM of each analogue", "result": "significant induction"}, {"measurement": "concentration of maximal induction of PAOh1/SMO", "setting": "[1]; NCI A549, increasing concentrations, 24 h", "result": 5, "unit": "µM"}, {"measurement": "increase in PAO message", "setting": "[2]", "result": "~5", "unit": "fold"}, {"measurement": "ability to serve as substrate (oxidation by purified PAOh1/SMO)", "setting": "[3]; 250 μM of compound", "result": "none of the analogues examined were found to be oxidized"}, {"measurement": "increase in PAO activity", "setting": "[4]", "result": "> 3", "unit": "fold"}, {"measurement": "SSAT activity", "setting": "[5]", "result": "5590 ± 517.7 pmol N^1-acetylspermidine/mg p"}, {"measurement": "increase in PAOh1/SMO activity", "setting": "[6]", "result": "no observed increase"}, {"measurement": "increase in PAOh1/SMO mRNA", "setting": "[6]", "result": "no observed increase"}, {"measurement": "Polyamine: Putrescine", "setting": "[7]; untreated 2.1 ± 0.7", "result": "<0.05", "unit": "nmol/mg protein"}, {"measurement": "Polyamine: Spermine", "setting": "[7]; untreated 9.9 ± 1.2", "result": "1.2 ± 0.3", "unit": "nmol/mg protein"}, {"measurement": "Polyamine: Spermidine", "setting": "[7]; untreated 26.9 ± 1.2", "result": "1.2 ± 0.8", "unit": "nmol/mg protein"}, {"measurement": "sensitivity of cell growth to analogue in the presence of the PAOh1/SMO inhibitor", "setting": "[8]; NCI A549, 96 h, 10 μM analogue with 250 μM MDL 72,527", "result": "clear decrease in sensitivity"}]}, {"smiles": "C=C=CCNCCCCNCC=C=C", "note": "[MDL 72,527, N^1,N^4-bis(2,3-butadienyl)-1,4-butanediamine]", "values": [{"measurement": "basal oxidase activity in the presence of inhibitor", "setting": "[1]; NCI A549 basal activity (4184 without inhibitor), 250 μM MDL 72,527", "result": 4055, "unit": "pmol/mg per hour"}, {"measurement": "effect on the basal levels of oxidase activity", "setting": "[1]; NCI A549 lysate, 250 μM MDL 72,527", "result": "did not significantly reduce"}, {"measurement": "inhibition of the PAOh1/SMO activity induced by the analogues", "setting": "[1]; NCI A549 lysate, 250 μM MDL 72,527 in the assay", "result": "significantly inhibited"}, {"measurement": "part of the basal level of oxidase activity that is inhibited", "setting": "[1]; basal (untreated) lung cancer cell lysate", "result": "less than 10%"}, {"measurement": "pIC50", "setting": "[3]", "result": "~5.00"}, {"measurement": "inhibition at 250 µM", "setting": "[3]; read-out: inhibition of oxidation of spermine", "result": "> 95", "unit": "%"}, {"measurement": "inhibition of the human PAOh1 protein product", "setting": "[9]", "result": "effective in inhibiting"}, {"measurement": "effect of the inhibitor alone on growth", "setting": "[8]; NCI A549, 250 μM MDL 72,527", "result": "did not adversely affect the growth"}]}]}
